# In US20130178448A1, “Treatment of Respiratory Disorders” (priority 2010, published 2013):
# Legend:
# [1] = rat, in vivo, 4 h
# Method: Vehicle and test compounds (Groups 1-7) were each administered orally (PO) to fasted rats. Each group included five animals. […] The animals were sacrificed four hours after dosing and gastric mucosal lesions were scored. A score of 50 percent or more (≧50%) relative to the aspirin-treated group (150 mg/kg PO, set as 100%) is considered positive in gastric irritation and is shown in parenthesis; and
# Seven groups of rats, each group consisting of five animals, were each administered orally (PO) with test formulations and control compounds. […] Group 3 animals were treated with 150 mg/kg aspirin, and Group 4 animals were treated with 100 mg/kg of ibuprofen dissolved in 1% CMC vehicle.
# The animals were sacrificed four hours after dosing with the test compound (or control vehicle) and gastric mucosal lesions were then scored according to the following criteria: 0=no lesions, 1=hyperemia, 2=one or two slight lesions, 3=more than two slight lesions or severe lesions, 4=very severe lesions (Herrerias et al., Dig. Dis. Sci., 2003). A score of 50 percent or more (≧50%) relative to the aspirin-treated group (150 mg/kg PO, set as 100%) was considered positive in gastric irritation and is shown in parenthesis in the table of FIG. 5.
# [2] = system: Influenza A/PR/8/34 (H1N1 virus); assay: In vivo mouse viral challenge (weight loss and survival of influenza-challenged mice); parameters: species or system mice (C57BLK/6); conditions: intraperitoneal, 335.6 μg/animal in 10 μl DMSO
# Method: Five groups (n=10) of C57BLK/6 female mice (6-7 weeks old), were divided into five experimental groups containing ten animals each. On day 1, animals received an intranasal lethal dose (50 μl total, 25 μl nostril) of Influenza A/PR/8/34 under halothane induced anaesthesia.
# The animals were weighed, and monitored for signs of infection daily up to day 6 when all animals were culled. FIGS. 1-4 represent the average weight loss per group and animal survival.
# Using standard techniques as described above, mice were infected with a H1N1 virus which was allowed to become established in each of the subjects. Each test mouse was then treated with ibuprofen, either intraperitoneally (in DMSO) or orally (in the lipid/ethanol formulation, BC1054). The weight loss of both treated and untreated mice was then determined.
SMILES,"ulceration score relative to aspirin (150 mg/kg PO, set as 100%) [1] [%]","percentage survival rate compared with control mice ([2]; single dose day 3, especially after day four, FIG. 2)","higher reduction in weight loss than in the control mice ([2]; single dose day 3 post-challenge, vs vehicle control, FIG. 1) [%]"
CC(=O)Oc1ccccc1C(=O)O [Aspirin],100,–,–
CC(C)Cc1ccc(C(C)C(=O)O)cc1 (stereo not drawn) [ibuprofen],–,lower percentage survival rate than the control mice,~30
